Measurements as given in PubChem BioAssay (NCI).
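1) Cells in 96-well plates. 2) Compound, 48 h, 5 concentrations. 3) Linear interpolation between surrounding doses. 4) Unreached endpoint = highest concentration. Abbreviation: GI50, concentration required for 50% inhibition of growth. The concentration for full growth arrest is given as TGI.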

Columns and labels:
Experiment in all cases: DTP human tumour cell line panel, 48 h
786-0 renal = test system: 786-0 renal
A498 renal = test system: A498 renal
A549 NSCLC = test system: A549 NSCLC
ACHN renal = test system: ACHN renal
BT-549 breast = test system: BT-549 breast
CAKI-1 renal = test system: CAKI-1 renal
CCRF-CEM leukemia = test system: CCRF-CEM leukemia
COLO 205 colon = test system: COLO 205 colon
DU-145 prostate = test system: DU-145 prostate
EKVX NSCLC = test system: EKVX NSCLC
HCC-2998 colon = test system: HCC-2998 colon
HCT-116 colon = test system: HCT-116 colon
HCT-15 colon = test system: HCT-15 colon
HL-60(TB) leukemia = test system: HL-60(TB) leukemia
HOP-62 NSCLC = test system: HOP-62 NSCLC
HOP-92 NSCLC = test system: HOP-92 NSCLC
HS 578T breast = test system: HS 578T breast
HT29 colon = test system: HT29 colon
IGROV1 ovarian = test system: IGROV1 ovarian
K-562 leukemia = test system: K-562 leukemia
KM12 colon = test system: KM12 colon
LOX IMVI melanoma = test system: LOX IMVI melanoma
M14 melanoma = test system: M14 melanoma
MALME-3M melanoma = test system: MALME-3M melanoma
MCF7 breast = test system: MCF7 breast
MDA-MB-231 breast = test system: MDA-MB-231 breast
MDA-MB-435 = test system: MDA-MB-435
MOLT-4 leukemia = test system: MOLT-4 leukemia
NCI-H226 lung = test system: NCI-H226 lung
NCI-H23 lung = test system: NCI-H23 lung
NCI-H460 lung = test system: NCI-H460 lung
NCI-H522 lung = test system: NCI-H522 lung
NCI/ADR-RES ovarian = test system: NCI/ADR-RES ovarian
OVCAR-3 ovarian = test system: OVCAR-3 ovarian
OVCAR-4 ovarian = test system: OVCAR-4 ovarian
OVCAR-5 ovarian = test system: OVCAR-5 ovarian
OVCAR-8 ovarian = test system: OVCAR-8 ovarian
PC-3 prostate = test system: PC-3 prostate
RPMI-8226 leukemia = test system: RPMI-8226 leukemia
RXF 393 renal = test system: RXF 393 renal
SF-268 CNS = test system: SF-268 CNS
SF-295 CNS = test system: SF-295 CNS
SF-539 CNS = test system: SF-539 CNS
SK-MEL-2 melanoma = test system: SK-MEL-2 melanoma
SK-MEL-28 melanoma = test system: SK-MEL-28 melanoma
SK-MEL-5 melanoma = test system: SK-MEL-5 melanoma
SK-OV-3 ovarian = test system: SK-OV-3 ovarian
SN12C renal = test system: SN12C renal
SNB-19 CNS = test system: SNB-19 CNS
SNB-75 CNS = test system: SNB-75 CNS
SR leukemia = test system: SR leukemia
SW-620 colon = test system: SW-620 colon
T-47D breast = test system: T-47D breast
TK-10 renal = test system: TK-10 renal
U251 CNS = test system: U251 CNS
UACC-257 melanoma = test system: UACC-257 melanoma
UACC-62 melanoma = test system: UACC-62 melanoma
UO-31 renal = test system: UO-31 renal

## Nc1n[nH]c2cccc(C#Cc3cccc(NC(=O)c4ccc(N5CCOCC5)c(C(F)(F)F)c4)c3)c12
786-0 renal
  GI50: 2840 nM
  TGI: 7840 nM
A498 renal
  GI50: 384 nM
  TGI: 2090 nM
A549 NSCLC
  GI50: 1800 nM
  TGI: 6050 nM
ACHN renal
  GI50: 725 nM
  TGI: 4780 nM
BT-549 breast
  GI50: 2080 nM
  TGI: 6800 nM
CAKI-1 renal
  GI50: 1130 nM
  TGI: 2910 nM
CCRF-CEM leukemia
  GI50: 1360 nM
  TGI: 6580 nM
COLO 205 colon
  GI50: 525 nM
  TGI: 2330 nM
DU-145 prostate
  GI50: 1810 nM
  TGI: 4370 nM
EKVX NSCLC
  GI50: 1610 nM
  TGI: 4170 nM
HCC-2998 colon
  GI50: 1320 nM
  TGI: 3150 nM
HCT-116 colon
  GI50: 653 nM
  TGI: 2330 nM
HCT-15 colon
  GI50: 1540 nM
  TGI: 6440 nM
HL-60(TB) leukemia
  GI50: 1400 nM
  TGI: 10500 nM
HOP-62 NSCLC
  GI50: 1490 nM
  TGI: 4390 nM
HOP-92 NSCLC
  GI50: 768 nM
  TGI: 3140 nM
HS 578T breast
  GI50: 508 nM
  TGI: 3770 nM
HT29 colon
  GI50: 632 nM
  TGI: 4550 nM
IGROV1 ovarian
  GI50: 682 nM
  TGI: 3540 nM
K-562 leukemia
  TGI: 13500 nM
KM12 colon
  GI50: 1290 nM
  TGI: 2910 nM
LOX IMVI melanoma
  GI50: 944 nM
  TGI: 2160 nM
M14 melanoma
  GI50: 473 nM
  TGI: 2200 nM
MALME-3M melanoma
  GI50: 540 nM
  TGI: 2120 nM
MCF7 breast
  GI50: 1800 nM
  TGI: 7860 nM
MDA-MB-231 breast
  GI50: 720 nM
  TGI: 2600 nM
MDA-MB-435
  GI50: 1090 nM
  TGI: 3310 nM
MOLT-4 leukemia
  GI50: 1310 nM
  TGI: 5710 nM
NCI-H226 lung
  GI50: 68.7 nM
  TGI: 8530 nM
NCI-H23 lung
  GI50: 1370 nM
  TGI: 4600 nM
NCI-H460 lung
  GI50: 1460 nM
  TGI: 3190 nM
NCI-H522 lung
  GI50: 1150 nM
  TGI: 3560 nM
NCI/ADR-RES ovarian
  GI50: 2250 nM
  TGI: 7650 nM
OVCAR-3 ovarian
  GI50: 1490 nM
  TGI: 5060 nM
OVCAR-4 ovarian
  GI50: 1060 nM
  TGI: 2980 nM
OVCAR-5 ovarian
  GI50: 599 nM
  TGI: 5260 nM
OVCAR-8 ovarian
  GI50: 1920 nM
  TGI: 6830 nM
PC-3 prostate
  GI50: 1930 nM
  TGI: 6830 nM
RPMI-8226 leukemia
  GI50: 1980 nM
  TGI: 6500 nM
RXF 393 renal
  GI50: 1020 nM
  TGI: 2830 nM
SF-268 CNS
  GI50: 1300 nM
  TGI: 5350 nM
SF-295 CNS
  GI50: 1370 nM
  TGI: 5200 nM
SF-539 CNS
  GI50: 310 nM
  TGI: 1540 nM
SK-MEL-2 melanoma
  GI50: 855 nM
  TGI: 3250 nM
SK-MEL-28 melanoma
  GI50: 867 nM
  TGI: 2720 nM
SK-MEL-5 melanoma
  GI50: 1560 nM
  TGI: 3000 nM
SK-OV-3 ovarian
  GI50: 2090 nM
  TGI: 5250 nM
SN12C renal
  GI50: 1560 nM
  TGI: 5800 nM
SNB-19 CNS
  GI50: 2750 nM
  TGI: 7390 nM
SNB-75 CNS
  GI50: 1070 nM
  TGI: 2470 nM
SR leukemia
  GI50: 2400 nM
  TGI: > 100000 nM
SW-620 colon
  GI50: 1130 nM
  TGI: 5950 nM
T-47D breast
  GI50: 1060 nM
  TGI: 3680 nM
TK-10 renal
  GI50: 2050 nM
  TGI: 4400 nM
U251 CNS
  GI50: 2060 nM
  TGI: 7410 nM
UACC-257 melanoma
  GI50: 1770 nM
  TGI: 4380 nM
UACC-62 melanoma
  GI50: 622 nM
  TGI: 2550 nM
UO-31 renal
  GI50: 567 nM
  TGI: 2920 nM
